Test systems include COLO 205 colon; EKVX NSCLC; SF-539 CNS; SK-MEL-5 melanoma; SN12C renal; SNB-75 CNS; SW-620 colon; TK-10 renal; U251 CNS; UO-31 renal.
What all share (assay): NCI-60 cell line screen, 48 h

Values joined by “and” are separate entries in the source; they are usually repeats but may differ in a detail not shown here. Equal values may be shown once.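 1) Cells in 96-well plates. 2) Compound, 48 h, 5 concentrations. 3) Linear interpolation between surrounding doses. 4) Unreached endpoint = highest concentration. Abbreviation: GI50, concentration required for 50% inhibition of growth. TGI: total growth inhibition.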

As to `ON(Cc1ccccc1)C(=S)c1ccccc1`, the TGI is above 93.8 µM with COLO 205 colon; above 100 µM in the assay with EKVX NSCLC; 44.4 µM with SF-539 CNS; above 100 µM with SK-MEL-5 melanoma; above 100 µM with SN12C renal; above 100 µM in the assay with SNB-75 CNS. In addition, the TGI in the assay on SW-620 colon is above 100 µM; with TK-10 renal, above 100 µM; with U251 CNS, 61 µM; in the assay on UO-31 renal, 37.9 µM.
For `O=S(=O)(O)c1ccc(N=Nc2nc(C(F)(F)F)c(C(F)(F)F)[nH]2)cc1`, the TGI in the assay with COLO 205 colon is above 100 µM; in the assay with EKVX NSCLC, above 100 µM; in the assay on SF-539 CNS, 65.9 µM; in the assay on SK-MEL-5 melanoma, above 100 µM; in the assay with SN12C renal it was above 100 µM; with SNB-75 CNS it was above 100 µM. In addition, the TGI in the assay on SW-620 colon, with TK-10 renal, in the assay with U251 CNS and in the assay on UO-31 renal was above 100 µM each time.
Take `O=C1C2=C(c3ccccc31)C(c1ccccc1)N1C(=O)CSC1=N2` (stereo unspecified): the TGI in the assay on COLO 205 colon was above 100 µM; in the assay on EKVX NSCLC it was above 100 µM; in the assay on SF-539 CNS it was 97.1 µM; in the assay on SK-MEL-5 melanoma, above 100 µM; with SN12C renal, above 94.9 µM; in the assay on SNB-75 CNS, 67.7 µM. In addition, the TGI with SW-620 colon, in the assay with TK-10 renal, with U251 CNS and in the assay on UO-31 renal was above 100 µM in each case.
Regarding `CC(C)N1CCN(Cc2ccc3c(NNC(=O)c4ccccc4)nc4cc(F)ccc4n23)CC1`, the GI50 with COLO 205 colon was 0.273 µM; in the assay on EKVX NSCLC, 0.172 µM; in the assay on SF-539 CNS it was 0.403 µM; in the assay on SK-MEL-5 melanoma, 0.921 µM; with SN12C renal it was 0.529 µM; with SNB-75 CNS it was 0.451 µM. Further, the GI50 with SW-620 colon is 0.463 µM; in the assay with TK-10 renal it was 0.216 µM; in the assay on U251 CNS, 0.296 µM; in the assay on UO-31 renal, 0.0688 µM. The TGI in the assay with COLO 205 colon worked out at 3.47 µM; in the assay on EKVX NSCLC, 6.79 µM; in the assay with SF-539 CNS it was 1.82 µM; in the assay with SK-MEL-5 melanoma it was 3.11 µM; in the assay with SN12C renal, 12.8 µM; with SNB-75 CNS it was 7.24 µM. Further, the TGI in the assay on SW-620 colon was 2.12 µM; with TK-10 renal, 23.9 µM; in the assay on U251 CNS, 2.01 µM; with UO-31 renal, 3.14 µM.
Regarding `COc1cc(NS(C)(=O)=O)ccc1Nc1c2ccccc2nc2ccccc12`, the GI50 is 0.715 µM and 1.11 µM in the assay with COLO 205 colon; 4.77 µM and 3.01 µM and 2.84 µM in the assay with EKVX NSCLC; 0.531 µM and 0.36 µM and 0.41 µM in the assay with SF-539 CNS; 0.618 µM and 0.282 µM with SK-MEL-5 melanoma; 0.432 µM and 0.273 µM and 0.307 µM in the assay on SN12C renal; 0.221 µM and 0.335 µM and 0.341 µM in the assay on SNB-75 CNS. The GI50 with SW-620 colon was 1.49 µM and 0.242 µM and 0.351 µM; in the assay on TK-10 renal, 4.72 µM and 0.854 µM and 0.911 µM; in the assay with U251 CNS, 0.528 µM and 0.35 µM and 0.358 µM; in the assay with UO-31 renal, 1.39 µM and 0.288 µM and 0.231 µM. Further, the TGI in the assay with SF-539 CNS was 2.27 µM [middle of 7 runs].
For `NC1=NC(c2ccc(Cl)cc2)N(c2ccc(S(N)(=O)=O)cc2)C(N)=N1` (stereo unspecified), the TGI in the assay on COLO 205 colon, in the assay with EKVX NSCLC, with SF-539 CNS, in the assay with SK-MEL-5 melanoma, in the assay on SN12C renal and in the assay with SNB-75 CNS was above 100 µM in each case. For the same molecule, the TGI in the assay with SW-620 colon, in the assay with TK-10 renal, in the assay with U251 CNS and with UO-31 renal was above 100 µM throughout.
For the molecule `CCCCCCCCCCCCCCCCNCCCN(C)CCCN`, the TGI is 46.6 µM in the assay on COLO 205 colon; 42.8 µM in the assay on EKVX NSCLC; 34.5 µM in the assay on SF-539 CNS; 31.4 µM in the assay with SK-MEL-5 melanoma; 41 µM in the assay with SN12C renal; 34.2 µM in the assay on SNB-75 CNS. For the same molecule, the TGI with SW-620 colon was 36.3 µM; with TK-10 renal it was 29.3 µM; in the assay with U251 CNS, 31.8 µM; in the assay on UO-31 renal it was 31.6 µM.
On to `CCCCC(C)C(OC(=O)CC(CC(=O)O)C(=O)O)C(CC(C)CC(O)CCCCC(O)CC(O)C(C)N)OC(=O)CC(CC(=O)O)C(=O)O` (stereo unspecified), for which the TGI with COLO 205 colon, in the assay with EKVX NSCLC, in the assay on SF-539 CNS, with SK-MEL-5 melanoma, in the assay with SN12C renal and with SNB-75 CNS was above 100 µM throughout. Also, the TGI in the assay on SW-620 colon, with TK-10 renal, in the assay on U251 CNS and with UO-31 renal was above 100 µM throughout.
With `COc1cccc2c1-c1c(c3ccc([N+](=O)[O-])cc3c(=O)n1CCCN)C2=O`, the GI50 is 1.34 µM in the assay with COLO 205 colon; 2.17 µM with EKVX NSCLC; 1.52 µM in the assay on SF-539 CNS; 1.91 µM in the assay with SK-MEL-5 melanoma; 3.23 µM in the assay with SN12C renal; 5.76 µM in the assay on SNB-75 CNS. In addition, the GI50 was 0.459 µM with SW-620 colon, 2.81 µM in the assay on TK-10 renal, 1.02 µM with U251 CNS and 1.26 µM in the assay on UO-31 renal. In addition, the TGI in the assay on COLO 205 colon amounted to 3.07 µM; with EKVX NSCLC, 5.08 µM; in the assay with SF-539 CNS it was 3.19 µM; in the assay with SK-MEL-5 melanoma, 7.38 µM; with SN12C renal it was 9.07 µM; with SNB-75 CNS, 25.1 µM. Further, the TGI in the assay with SW-620 colon stood at 3.2 µM; with TK-10 renal, 13.2 µM; in the assay on U251 CNS, 2.23 µM; in the assay on UO-31 renal, 2.59 µM.
Turning to `CCC(c1ccc(OC)cc1)C(CC)c1ccc(O)c(CN2CCN(C)CC2)c1` (stereo unspecified), the GI50 in the assay on COLO 205 colon is 1.73 µM; with EKVX NSCLC, 5.37 µM; with SF-539 CNS it was 2.66 µM; in the assay on SK-MEL-5 melanoma, 1.69 µM; with SN12C renal it was 5.7 µM; in the assay on SNB-75 CNS, 10 µM. The GI50 is 3.15 µM in the assay on SW-620 colon, 4.48 µM in the assay on TK-10 renal, 2.73 µM in the assay on U251 CNS and 1.83 µM in the assay on UO-31 renal. The TGI with COLO 205 colon worked out at 3.42 µM; in the assay with EKVX NSCLC, 19.2 µM; with SF-539 CNS, 7.98 µM; in the assay on SK-MEL-5 melanoma, 3.22 µM; with SN12C renal it was 20.9 µM; with SNB-75 CNS, 23 µM. The TGI is 10 µM with SW-620 colon, 15.6 µM in the assay on TK-10 renal, 12.2 µM with U251 CNS and 7.32 µM in the assay on UO-31 renal.

(Values after PubChem BioAssay (NCI).)
